Laboratory results published in ChEMBL document CHEMBL4346687, “Design, synthesis and biological evaluation of novel uracil derivatives bearing 1, 2, 3-triazole moiety as thymidylate synthase (TS) inhibitors and as potential antitumor drugs” (Eur J Med Chem, 2019).

Legend:
[1] = test system: L02; assay: (§1) Cytotoxicity against human L02 cells assessed as reduction in cell viability after 24 hrs by MTT assay; format: cell-based; conditions: l02, 24 h
[2] = test system: GES1; assay: (§2) Cytotoxicity against human GES-1 cells assessed as reduction in cell viability after 24 hrs by MTT assay; format: cell-based; conditions: ges1, 24 h
[3] = test system: OVCAR-3; assay: cells; conditions: Homo sapiens, OVCAR-3, 24 h
Description: Antiproliferative activity against human OVCAR3 cells assessed as reduction in cell viability after 24 hrs by MTT assay

[4] = Cytotoxicity against human HPAEpic cells assessed as reduction in cell viability after 24 hrs by MTT assay; format: cell-based; conditions: for CC50: 24 h; for CC50 at 24 h: HPAEpic cells
[5] = test system: SGC-7901; assay: cells; conditions: Homo sapiens, SGC-7901, 24 h
Description: Antiproliferative activity against human SGC7901 cells assessed as reduction in cell viability after 24 hrs by MTT assay

[6] = Cytotoxicity against human IOSE-80 cells assessed as reduction in cell viability after 24 hrs by MTT assay; format: cell-based; conditions: for CC50: 24 h; for CC50 at 24 h: IOSE-80 cells
[7] = test system: HepG2; assay: cells; conditions: Homo sapiens, HepG2, 24 h
Description: Antiproliferative activity against human HepG2 cells assessed as reduction in cell viability after 24 hrs by MTT assay

[8] = test system: A549; assay: cells; conditions: Homo sapiens, A549, 24 h
Description: Antiproliferative activity against human A549 cells assessed as reduction in cell viability after 24 hrs by MTT assay

[9] = as §1; format: cell-based; conditions: L02 cells
[10] = as §2; format: cell-based, GES1; conditions: GES-1 cells

IC50 [3]	IC50 [5]	IC50 [7]	IC50 [8]	SMILES	CC50 [1]	CC50 [2]	CC50 [4]	CC50 [6]	CC50 at 24 h [9]	CC50 at 24 h [10]	CC50 at 24 h [4]	CC50 at 24 h [6]
18 µM	18.8 µM	18 µM	7.17 µM	O=c1[nH]cc(S(=O)(=O)Nc2ccc(-c3cn(-c4ccccc4)nn3)cc2)c(=O)[nH]1	Non-Toxic	Non-Toxic	Non-Toxic	Non-Toxic				
3.15 µM	3.51 µM	3.62 µM	1.87 µM	Cc1cccc(-n2cc(-c3ccccc3NS(=O)(=O)c3c[nH]c(=O)[nH]c3=O)nn2)c1					21.9 µM	23.7 µM	12.3 µM	15.8 µM
7.49 µM	17.4 µM	> 20 µM	6.96 µM	Cc1cccc(-n2cc(-c3ccc(NS(=O)(=O)c4c[nH]c(=O)[nH]c4=O)cc3)nn2)c1					39 µM	28.3 µM	31.3 µM	29.3 µM
4.08 µM	9.1 µM	7.05 µM	3.55 µM	Cc1cccc(-n2cc(-c3cccc(NS(=O)(=O)c4c[nH]c(=O)[nH]c4=O)c3)nn2)c1					28.3 µM	18.5 µM	23.7 µM	23.4 µM
2.04 µM	2.16 µM	1.96 µM	1.73 µM	O=c1[nH]cc(S(=O)(=O)Nc2cccc(-c3cn(-c4ccc(Cl)cc4)nn3)c2)c(=O)[nH]1					9.86 µM	11.3 µM	14 µM	6.26 µM
> 20 µM	> 20 µM	> 20 µM	9.98 µM	O=c1[nH]cc(S(=O)(=O)Nc2ccc(-c3cn(-c4cccc(F)c4)nn3)cc2)c(=O)[nH]1	Non-Toxic	Non-Toxic	Non-Toxic	Non-Toxic				
3.54 µM	9.43 µM	> 20 µM	3.63 µM	Cc1ccc(-n2cc(-c3cccc(NS(=O)(=O)c4c[nH]c(=O)[nH]c4=O)c3)nn2)cc1					23.1 µM	15.8 µM	10.6 µM	12.8 µM
7.31 µM	13.6 µM	14.5 µM	3.13 µM	Cc1ccccc1-n1cc(-c2ccc(NS(=O)(=O)c3c[nH]c(=O)[nH]c3=O)cc2)nn1	Non-Toxic	Non-Toxic	Non-Toxic	Non-Toxic				
4.27 µM	2.68 µM	2.23 µM	2.81 µM	O=c1[nH]cc(S(=O)(=O)Nc2ccc(-c3cn(-c4ccccc4Cl)nn3)cc2)c(=O)[nH]1					19.3 µM	16.4 µM	17 µM	22.2 µM
8.03 µM	7.27 µM	> 20 µM	5.96 µM	O=c1[nH]cc(S(=O)(=O)Nc2ccc(-c3cn(-c4ccccc4F)nn3)cc2)c(=O)[nH]1					> 100 µM	> 100 µM	32.6 µM	> 100 µM
5.63 µM	8.35 µM	11.6 µM	5.56 µM	Cc1ccc(-n2cc(-c3ccc(NS(=O)(=O)c4c[nH]c(=O)[nH]c4=O)cc3)nn2)cc1	Non-Toxic	Non-Toxic					29.1 µM	30.5 µM
> 20 µM	> 20 µM	> 20 µM	9.72 µM	O=c1[nH]cc(S(=O)(=O)Nc2ccc(-c3cn(-c4ccc(F)cc4)nn3)cc2)c(=O)[nH]1	Non-Toxic			Non-Toxic		> 100 µM	> 100 µM	
2.75 µM	2.46 µM	2.02 µM	2.31 µM	O=c1[nH]cc(S(=O)(=O)Nc2ccc(-c3cn(-c4cccc(Cl)c4)nn3)cc2)c(=O)[nH]1					19 µM	7.57 µM	13.8 µM	14.3 µM
> 20 µM	> 20 µM	> 20 µM	7.2 µM	O=c1[nH]cc(S(=O)(=O)Nc2cccc(-c3cn(-c4cccc(F)c4)nn3)c2)c(=O)[nH]1	Non-Toxic	Non-Toxic	Non-Toxic	Non-Toxic				
2.16 µM	1.83 µM	1.98 µM	1.21 µM	O=c1[nH]cc(S(=O)(=O)Nc2ccc(-c3cn(-c4ccc(Cl)cc4)nn3)cc2)c(=O)[nH]1					42.9 µM	23.3 µM	14.8 µM	17.7 µM

The remaining lines, values behind:

SMILES	IC50 [3]	IC50 [5]	IC50 [7]	IC50 [8]	CC50 [1]	CC50 [2]	CC50 [4]	CC50 [6]	CC50 at 24 h [9]	CC50 at 24 h [10]	CC50 at 24 h [4]	CC50 at 24 h [6]
O=c1[nH]cc(S(=O)(=O)Nc2cccc(-c3cn(-c4ccc(F)cc4)nn3)c2)c(=O)[nH]1	> 20 µM	> 20 µM	> 20 µM	> 20 µM	Non-Toxic	Non-Toxic	Non-Toxic	Non-Toxic				
O=c1[nH]cc(S(=O)(=O)Nc2ccccc2-c2cn(-c3ccc(F)cc3)nn2)c(=O)[nH]1	> 20 µM	> 20 µM	> 20 µM	6.39 µM	Non-Toxic	Non-Toxic	Non-Toxic	Non-Toxic				
O=c1[nH]cc(S(=O)(=O)Nc2ccccc2-c2cn(-c3ccccc3Cl)nn2)c(=O)[nH]1	3.17 µM	6.52 µM	2.24 µM	2.74 µM					22.8 µM	20.8 µM	17.7 µM	11.2 µM
O=c1[nH]cc(S(=O)(=O)Nc2cccc(-c3cn(-c4ccccc4F)nn3)c2)c(=O)[nH]1	12.5 µM	16 µM	13.9 µM	> 20 µM	Non-Toxic	Non-Toxic	Non-Toxic	Non-Toxic				
O=c1[nH]cc(S(=O)(=O)Nc2cccc(-c3cn(-c4cccc(Cl)c4)nn3)c2)c(=O)[nH]1	3.41 µM	3.95 µM	4.2 µM	2.43 µM					8.33 µM	26.2 µM	10.2 µM	18.9 µM
O=c1[nH]cc(S(=O)(=O)Nc2cccc(-c3cn(-c4ccccc4)nn3)c2)c(=O)[nH]1	> 20 µM	17.2 µM	11.2 µM	12.7 µM				Non-Toxic	> 100 µM	22.5 µM	41.5 µM	
O=c1[nH]cc(S(=O)(=O)Nc2cccc(-c3cn(-c4ccccc4Cl)nn3)c2)c(=O)[nH]1	5.37 µM	3.01 µM	4.03 µM	2.73 µM					11.5 µM	14 µM	12.3 µM	17.9 µM
O=c1[nH]cc(S(=O)(=O)Nc2ccccc2-c2cn(-c3ccccc3F)nn2)c(=O)[nH]1	15.3 µM	10.8 µM	12.5 µM	7.37 µM					> 100 µM	> 100 µM	> 100 µM	> 100 µM
Cc1ccccc1-n1cc(-c2cccc(NS(=O)(=O)c3c[nH]c(=O)[nH]c3=O)c2)nn1	6.23 µM	9.23 µM	9.57 µM	5.47 µM					15.3 µM	21.5 µM	10.2 µM	36.4 µM
Cc1ccccc1-n1cc(-c2ccccc2NS(=O)(=O)c2c[nH]c(=O)[nH]c2=O)nn1	6.55 µM	9.57 µM	13.9 µM	3.21 µM					56.6 µM	19.9 µM	9.67 µM	17.4 µM
O=c1[nH]cc(S(=O)(=O)Nc2ccccc2-c2cn(-c3cccc(Cl)c3)nn2)c(=O)[nH]1	2.18 µM	2.27 µM	2.46 µM	2.34 µM					> 100 µM	> 100 µM	> 100 µM	> 100 µM
O=c1[nH]cc(S(=O)(=O)Nc2ccccc2-c2cn(-c3ccccc3)nn2)c(=O)[nH]1	6.65 µM	11.8 µM	6.16 µM	6.79 µM					10.6 µM	> 100 µM	14.3 µM	10.5 µM
Cc1ccc(-n2cc(-c3ccccc3NS(=O)(=O)c3c[nH]c(=O)[nH]c3=O)nn2)cc1	2.19 µM	6.39 µM	8.35 µM	2.91 µM					> 100 µM	32.4 µM	7.03 µM	33.4 µM
O=c1[nH]cc(S(=O)(=O)Nc2ccccc2-c2cn(-c3cccc(F)c3)nn2)c(=O)[nH]1	> 20 µM	> 20 µM	> 20 µM	8.13 µM	Non-Toxic	Non-Toxic		Non-Toxic			> 100 µM	
